Biological target: T1, human alpha2A-adrenergic receptor (Homo sapiens, UniProt P08913)
T1 construct: human HT29 cells (RB-HAL2A, NEN, Zaventem, Belgium), which endogenously express the alpha2A-adrenergic receptor; purchased NEN, Zaventem, Belgium RB-HAL2A; host or cells: human HT29 cells (endogenous expression), membrane preparation
T1 sequence (P08913 1-465): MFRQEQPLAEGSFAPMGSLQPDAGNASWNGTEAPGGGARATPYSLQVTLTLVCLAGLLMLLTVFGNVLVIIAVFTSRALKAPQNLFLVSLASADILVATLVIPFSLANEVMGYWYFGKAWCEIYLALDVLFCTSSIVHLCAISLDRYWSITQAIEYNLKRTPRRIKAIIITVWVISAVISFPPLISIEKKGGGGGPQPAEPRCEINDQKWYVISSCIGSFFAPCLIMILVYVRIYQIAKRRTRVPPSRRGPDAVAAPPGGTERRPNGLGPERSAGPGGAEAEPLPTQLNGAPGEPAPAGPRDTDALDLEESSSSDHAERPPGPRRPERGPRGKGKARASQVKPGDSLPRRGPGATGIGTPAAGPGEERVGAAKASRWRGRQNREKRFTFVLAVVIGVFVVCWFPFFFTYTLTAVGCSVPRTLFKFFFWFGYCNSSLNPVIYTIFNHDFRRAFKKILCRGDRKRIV
Assay: Binding affinity to human alpha2A-adrenergic receptor ([3H]-MK-912 displacement, HT29 cell membrane preparation)
Conditions: compound concentration 10 NM [sic] (method: 10 μmol/l); displacement of 0.5 nmol/l [3H]-MK-912; HT29 membranes; pH 7.4
Procedure: Method for Determining the Binding Affinity to Human Alpha2A-adrenergic Receptor
The affinity of the compounds according to the invention to the pain-relevant alpha2A-receptor was investigated as follows.
The receptor affinity of the compounds according to the invention to human alpha2A-adrenergic receptor was determined in a microtiter plate batch. For this purpose, the compounds to be tested were incubated in a concentration of 10 μmol/l with a receptor membrane preparation of human HT29 cells (RB-HAL2A, NEN, Zaventem, Belgium), which endogenously express the alpha2A-adrenergic receptor, at a protein concentration of 40 μg protein/250 μl incubation batch in the presence of 0.5 nmol/l of the radioactively marked ligands [3H]-MK-912 (NET-1059, NEN, Zaventem, Belgium) for 30 minutes, with exclusion of light, at ambient temperature. A 25 mmol/l sodium phosphate buffer at a pH of 7.4 was used as the buffer system. The unspecific bond was determined in the presence of 10 μmol/l phentolamine. After incubation, the microtiter plates were filtered on glass fiber microtiter filter plates (Whatman GF/B, Hassel, Munich) using a Brandel Cell Harvester (MPRI-96T type, Hassel, Munich) and after drying of the glass fiber filter plates and subsequent charging of the plates with 35 μl of a scintillator (Ultima Gold, Canberra-Packard, Freiburg) were measured in a microtiter plate counter (1450 Microbeta Trilux, PerkinElmer-Wallac, Freiburg) after a delay of at least 90 minutes. The glass fiber microtiter filter plates were each pretreated prior to filtration of the incubation plates for 30 minutes with 50 μl per indentation of a 25 mmol/l sodium phosphate buffer supplemented by 0.5% (v/v) polyethylene imine at a pH of 7.4. The percentage inhibition effect of the compounds was calculated as a displacement of the radioactive ligand from its specific bond to the human alpha2A-adrenergic receptor.
Determining the Binding Affinity to Human Alpha2A-adrenergic Receptor
The binding affinities to human alpha2A-adrenergic receptor were determined by the foregoing methods.

inhibition at 10 µM	SMILES
51%	OC1(c2cccc(Cl)c2)C(CN2CCCCC2)CCCC1CN1CCCCC1 (stereo not drawn) [1-(3-chlorophenyl)-2,6-bis-piperidin-1-ylmethyl-cyclohexanol]
59%	OC1(Cc2cccc(F)c2)C(CN2CCCCC2)CCCC1CN1CCCCC1 (stereo not drawn) [1-(3-fluorobenzyl)-2,6-bis-piperidin-1-ylmethyl-cyclohexanol]
48%	OC1(c2cccc(F)c2)C(CN2CCCCC2)CCCC1CN1CCCCC1 (stereo not drawn) [1-(3-fluorophenyl)-2,6-bis-piperidin-1-ylmethyl-cyclohexanol]
80%	COc1cccc(CC2(O)C(CN3CCCCC3)CCCC2CN2CCCCC2)c1 (stereo not drawn) [1-(3-methoxy-benzyl)-2,6-bis-piperidin-1-ylmethyl-cyclohexanol]
100%	Cc1cccc(CC2(O)C(CN3CCCCC3)CCCC2CN2CCCCC2)c1 (stereo not drawn) [1-(3-methyl-benzyl)-2,6-bis-piperidin-1-ylmethyl-cyclohexanol]
26%	OC1(c2ccc(Cl)c(C(F)(F)F)c2)C(CN2CCCCC2)CCCC1CN1CCCCC1 (stereo not drawn) [1-(4-chloro-3-trifluoromethyl-phenyl)-2,6-bis-piperidin-1-ylmethyl-cyclohexanol]
88%	OC1(Cc2ccc(Cl)cc2)C(CN2CCCCC2)CCCC1CN1CCCCC1 (stereo not drawn) [1-(4-chlorobenzyl)-2,6-bis-piperidin-1-ylmethyl-cyclohexanol]
87%	OC1(Cc2ccc(F)cc2)C(CN2CCCCC2)CCCC1CN1CCCCC1 (stereo not drawn) [1-(4-fluorobenzyl)-2,6-bis-piperidin-1-ylmethyl-cyclohexanol]
56%	OC1(c2cccc(C(F)(F)F)c2)C(CN2CCCCC2)CCCC1CN1CCCCC1 (stereo not drawn) [2,6-bis-piperidin-1-ylmethyl-1-(3-trifluoromethyl-phenyl)-cyclohexanol]

Further lines, the compound ahead of its results:

SMILES	inhibition at 10 µM
OC1(Cc2ccc(Cl)cc2Cl)C(CN2CCCCC2)CCCC1CN1CCCCC1 (stereo not drawn) [1-(2,4-dichlorobenzyl)-2,6-bis-piperidin-1-ylmethyl-cyclohexanol]	100%
Cc1ccc(C)c(CC2(O)C(CN3CCCCC3)CCCC2CN2CCCCC2)c1 (stereo not drawn) [1-(2,5-dimethyl-benzyl)-2,6-bis-piperidin-1-ylmethyl-cyclohexanol]	100%
OC1(Cc2c(F)cccc2Cl)C(CN2CCCCC2)CCCC1CN1CCCCC1 (stereo not drawn) [1-(2-chloro-6-fluorobenzyl)-2,6-bis-piperidin-1-ylmethyl-cyclohexanol]	68%
OC1(Cc2ccccc2Cl)C(CN2CCCCC2)CCCC1CN1CCCCC1 (stereo not drawn) [1-(2-chlorobenzyl)-2,6-bis-piperidin-1-ylmethyl-cyclohexanol]	100%
COc1ccccc1C1(O)C(CN2CCCCC2)CCCC1CN1CCCCC1 (stereo not drawn) [1-(2-methoxy-phenyl)-2,6-bis-piperidin-1-ylmethyl-cyclohexanol]	30%
Cc1ccccc1CC1(O)C(CN2CCCCC2)CCCC1CN1CCCCC1 (stereo not drawn) [1-(2-methyl-benzyl)-2,6-bis-piperidin-1-ylmethyl-cyclohexanol]	100%
OC1(c2cc(Cl)cc(Cl)c2)C(CN2CCCCC2)CCCC1CN1CCCCC1 (stereo not drawn) [1-(3,5-dichlorophenyl)-2,6-bis-piperidin-1-ylmethyl-cyclohexanol]	33%
OC1(c2ccc(F)c(Cl)c2)C(CN2CCCCC2)CCCC1CN1CCCCC1 (stereo not drawn) [1-(3-chloro-4-fluorophenyl)-2,6-bis-piperidin-1-ylmethyl-cyclohexanol]	38%
OC1(Cc2cccc(Cl)c2)C(CN2CCCCC2)CCCC1CN1CCCCC1 (stereo not drawn) [1-(3-chlorobenzyl)-2,6-bis-piperidin-1-ylmethyl-cyclohexanol]	98%

Reference: patent US7569585B2, “1, 5-diaminopentan-3-ol compounds and related treatment methods” (Gruenenthal GmbH, priority 2001, dated 2009)
